Source: the supplement of paper PMC10307832

Tests used:
Test in all cases: relative viability (nuclei count vs DMSO), 5 days (fraction); higher = more cells survive
[1] = compound: CC1CC(=O)N(C2=CN=C(N=C2N1C3CCCC3)NC4=C(C=C(C=C4)C(=O)NC5CCN(CC5)C)OC)C [NPK76-II-72-1] + CS(=O)(=O)CCNCc1ccc(-c2ccc3ncnc(Nc4ccc(OCc5cccc(F)c5)c(Cl)c4)c3c2)o1 [Lapatinib] (partner 2 µM)
In short: (§1)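 Dosing by pin tool came one day after lung cancer cell lines were seeded in 1536-well plates, using either one drug or a fixed anchor-drug dose plus five library-drug doses (not always all listed) in √10 steps. After 5 days, nuclei were counted on 4× images. Relative viability is treated-well nuclei count divided by vehicle-well nuclei count, and values are medians of duplicate plates.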

BI-2536 + Alpelisib = compound: CC[C@@H]1C(=O)N(C)c2cnc(Nc3ccc(C(=O)NC4CCN(C)CC4)cc3OC)nc2N1C1CCCC1 [BI-2536] + Cc1nc(NC(=O)N2CCC[C@H]2C(N)=O)sc1-c1ccnc(C(C)(C)C(F)(F)F)c1 [Alpelisib] (partner 2 µM)
In short: as §1

BI-2536 + Olaparib = compound: CC[C@@H]1C(=O)N(C)c2cnc(Nc3ccc(C(=O)NC4CCN(C)CC4)cc3OC)nc2N1C1CCCC1 [BI-2536] + O=C(c1cc(Cc2n[nH]c(=O)c3ccccc23)ccc1F)N1CCN(C(=O)C2CC2)CC1 [Olaparib] (partner 8 µM)
In short: as §1

BI-2536 + Tozasertib = compound: CC[C@@H]1C(=O)N(C)c2cnc(Nc3ccc(C(=O)NC4CCN(C)CC4)cc3OC)nc2N1C1CCCC1 [BI-2536] + Cc1cc(Nc2cc(N3CCN(C)CC3)nc(Sc3ccc(NC(=O)C4CC4)cc3)n2)n[nH]1 [Tozasertib] (partner 0.1 µM)
In short: as §1

Cell Line	relative viability ([1]; first compound 0.01 µM)	relative viability ([1]; first compound 0.03162 µM)	relative viability ([1]; first compound 0.1 µM)	relative viability ([1]; first compound 0.3162 µM)	relative viability ([1]; first compound 1 µM)	relative viability (BI-2536 + Alpelisib; first compound 0.01 µM)	relative viability (BI-2536 + Alpelisib; first compound 0.03162 µM)	relative viability (BI-2536 + Alpelisib; first compound 0.1 µM)	relative viability (BI-2536 + Alpelisib; first compound 0.3162 µM)	relative viability (BI-2536 + Alpelisib; first compound 1 µM)	relative viability (BI-2536 + Olaparib; first compound 0.01 µM)	relative viability (BI-2536 + Olaparib; first compound 0.03162 µM)	relative viability (BI-2536 + Olaparib; first compound 0.1 µM)	relative viability (BI-2536 + Olaparib; first compound 0.3162 µM)	relative viability (BI-2536 + Olaparib; first compound 1 µM)	relative viability (BI-2536 + Tozasertib; first compound 0.01 µM)	relative viability (BI-2536 + Tozasertib; first compound 0.03162 µM)	relative viability (BI-2536 + Tozasertib; first compound 0.1 µM)	relative viability (BI-2536 + Tozasertib; first compound 0.3162 µM)	relative viability (BI-2536 + Tozasertib; first compound 1 µM)
LOU-NH91	0.746	0.759	0.732	0.777	0.822	0.764	0.602	0.657	0.359	0.317	0.934	0.728	0.612	0.336	0.28	0.694	0.543	0.439	0.34	0.234
LU99A	0.965	0.98	1.02	0.857	1.04	0.53	0.515	0.209	0.146	0.179	0.23	0.24	0.192	0.137	0.149	0.272	0.235	0.248	0.281	0.227
LXF-289	0.881	0.91	0.891	0.934	0.889	1.02	0.975	0.519	0.0396	0.0625	1	0.719	0.343	0.0702	0.0622	0.216	0.214	0.206	0.0925	0.11
NCI-H23	1.03	1.27		1.12	0.985	0.734	0.737	0.369	0.139	0.135	0.307	0.318	0.212	0.117	0.104	0.331	0.458	0.182	0.142	0.141
NCI-H322M	0.515	0.636	0.597	0.612	0.557	0.912	0.881	0.811	0.618	0.269	0.74	0.692	0.637	0.442	0.393	0.517	0.451	0.571	0.445	0.377
NCI-H358	0.444	0.443	0.549	0.453	0.477	0.995	0.537	0.154	0.158	0.159	0.559	0.247	0.0974	0.0882	0.0802	0.113	0.105	0.103	0.0917	0.0924
NCI-H460	0.887	0.948	1.21	1.02	0.966	0.523	0.481	0.0303	0.0093	0.0065	0.488	0.421	0.268	0.0394	0.0262	0.367	0.477	0.336	0.0323	0.0403
NCI-H520	0.735	0.85	0.912	0.857	0.841	0.833	0.828	0.315	0.201	0.154	0.284	0.217	0.228	0.162	0.168	0.429	0.424	0.365	0.395	0.361
NCI-H596	1	1.14	1.07	0.914	1.09	0.409	0.46	0.535	0.305	0.304	0.731	0.731	0.59	0.423	0.295	0.913	1.12	0.769	0.267	0.247
NCI-H647	0.932	1.01		0.916	1.01	1.19	0.57	0.571	0.0897	0.091	0.481	0.281	0.107	0.0584	0.0662	0.34	0.433	0.209	0.132	0.103
NCI-H650	1.17	0.912	0.723		0.925	1.02	0.778	0.437	0.218	0.127	0.407	0.28	0.237	0.146	0.105	0.64	0.529	0.358	0.181	0.16
NCI-H661	0.398	0.532	0.562	0.473	0.513	0.149	0.577	0.619	0.216	0.24	0.763	0.468	0.354	0.335	0.34	0.367	0.373	0.384	0.316	0.31
NCI-H727	0.97	1.04	0.81	0.979	0.884	0.616	0.636	0.453	0.245	0.238	0.589	0.765	0.643	0.461	0.576	0.646	0.695	0.672	0.496	0.392
NCI-H838	0.951	1.08	1.05	0.971	1.09	0.967	1	0.661	0.124	0.144	0.731	0.638	0.368	0.0986	0.0726	0.239	0.269	0.241	0.229	0.225
NCI-H1355	0.922	0.933	0.967	0.931	1.02	0.701	0.797	0.753	0.226	0.17	0.728	0.598	0.536	0.169	0.17	0.528	0.434	0.295	0.212	0.195
NCI-H1395	1.1	1.11	1.09	1.03	1.07	0.958	0.502	0.43	0.499	0.369	0.4	0.396	0.329	0.364	0.355	0.668	0.729	0.642	0.399	0.285

Cell Line	relative viability ([1]; first compound 0.01 µM)	relative viability ([1]; first compound 0.03162 µM)	relative viability ([1]; first compound 0.1 µM)	relative viability ([1]; first compound 0.3162 µM)	relative viability ([1]; first compound 1 µM)	relative viability (BI-2536 + Alpelisib; first compound 0.01 µM)	relative viability (BI-2536 + Alpelisib; first compound 0.03162 µM)	relative viability (BI-2536 + Alpelisib; first compound 0.1 µM)	relative viability (BI-2536 + Alpelisib; first compound 0.3162 µM)	relative viability (BI-2536 + Alpelisib; first compound 1 µM)	relative viability (BI-2536 + Olaparib; first compound 0.01 µM)	relative viability (BI-2536 + Olaparib; first compound 0.03162 µM)	relative viability (BI-2536 + Olaparib; first compound 0.1 µM)	relative viability (BI-2536 + Olaparib; first compound 0.3162 µM)	relative viability (BI-2536 + Olaparib; first compound 1 µM)	relative viability (BI-2536 + Tozasertib; first compound 0.01 µM)	relative viability (BI-2536 + Tozasertib; first compound 0.03162 µM)	relative viability (BI-2536 + Tozasertib; first compound 0.1 µM)	relative viability (BI-2536 + Tozasertib; first compound 0.3162 µM)	relative viability (BI-2536 + Tozasertib; first compound 1 µM)
NCI-H1437	0.769	0.884	0.743	0.716	0.818	0.981	0.742	0.422	0.113	0.0916	0.6	0.494	0.339	0.23	0.247	0.465	0.432	0.389	0.333	0.237
NCI-H1651	0.835	0.928	0.905	0.807	0.837	0.93	0.828	0.558	0.0805	0.0804	0.185	0.173	0.157	0.142	0.109	0.685	0.795	0.429	0.104	0.0989
NCI-H1666	0.515	0.653	0.789	0.58	0.788	0.988	0.737	0.592	0.287	0.266	0.76	0.704	0.671	0.545	0.583	0.621	0.52	0.415	0.369	0.372
NCI-H1734	1.02	1.11	1.16	1.03	1.17	0.634	0.777	0.51	0.192	0.222	0.605	0.618	0.254	0.176	0.153	0.251	0.271	0.26	0.253	0.26
NCI-H1755	0.958	0.978	0.994	1.02	1.11	0.989	0.903	0.711	0.284	0.296	0.945	0.816	0.707	0.373	0.316	0.559	0.595	0.477	0.344	0.317
NCI-H1793	0.64	0.91	0.823	0.503	0.751	0.785	0.639	0.469	0.204	0.165	0.674	0.767	0.203	0.152	0.157	0.331	0.33	0.277	0.217	0.186
NCI-H1915	0.931	1.07	1.01	0.881	0.897	1.05	0.977	0.812	0.129	0.0999	0.218	0.205	0.163	0.0887	0.0963	0.486	0.292	0.232	0.171	0.166
NCI-H1944	0.81	0.808	0.904	0.825	0.71	0.895	0.892	0.679	0.192	0.164	0.385	0.389	0.297	0.164	0.147	0.25	0.268	0.234	0.234	0.195
NCI-H1975	0.813	0.878	0.928	0.886	0.955	0.654	0.479	0.351	0.148	0.173	0.776	0.71	0.544	0.161	0.169	0.664	0.673	0.393	0.116	0.0975
NCI-H1993	0.729	0.92	0.906	0.822	0.788	0.68	0.618	0.556	0.532	0.541	1.04	0.861	0.749	0.471	0.486	0.497	0.615	0.609	0.617	0.59
NCI-H2009	0.961	1.09	0.888	0.774	1.15	1.15	1.01	0.581	0.236	0.191	0.665	0.54	0.45	0.114	0.126	0.769	0.667	0.459	0.321	0.23
NCI-H2023	0.813	1.06	1.13	0.878	1.02	0.57	0.577	0.309	0.0843	0.0719	0.426	0.338	0.13	0.0876	0.0937	0.389	0.461	0.234	0.11	0.108
NCI-H2085	0.748	0.735	0.763	0.714	0.78	1.01	0.863	0.601	0.234	0.307	0.786	0.697	0.544	0.341	0.381	0.787	0.737	0.478	0.368	0.438
NCI-H2087	1.01	0.999	0.987	0.983	1.05	1.11	1.18	1.03	0.15	0.132	0.614	0.673	0.471	0.0859	0.102	0.25	0.214	0.155	0.119	0.12
NCI-H2126	0.686	0.806	0.755	0.733	0.823	0.739	0.731	0.62	0.269	0.237	0.968	0.891	0.77	0.322	0.241	0.884	0.373	0.296	0.236	0.269
NCI-H2170	0.267	0.286	0.257		0.268	0.767	0.871	0.402	0.195	0.223	0.597	0.525	0.39	0.164	0.145	0.713	0.89	0.593	0.177	0.249
